# In patent US20150238445A1 (CATHOLIC UNIVERSITY INDUSTRY ACADEMIC COOPERATION FOUNDATION, priority 2012, published 2015):
# How the values were obtained:
# B cell = B cell differentiation stages after LPS and metformin for 3 days, FACS; format: cell-based
# Description: FACS was performed to observe any changes of the cell in each stage of B cell differentiation.
# Th17 cell [1] = assay: Th17 cytokine ELISA and electron microscopy with autophagy activity inhibitor in T cells of lupus mouse model; format: cell-based
# Description: Thus, the present inventors investigated whether or not the activation of autophagy could be directly involved in the suppression of Th17 cell by using an autophagy activity inhibitor. Particularly, T cells were separated from the spleen cells of the lupus mouse model. […] Upon completion of the culture, IL-17, IL-21, and TNF-α cytokines in the culture solution were analyzed by ELISA. Some of those cultured cells were observed under electron microscope to directly observe the activated autophagy therein.
# autophagy = assay: Autophagy molecules and IL-17/Foxp3 in T cells under Th17 differentiation, Western blotting and confocal staining; format: cell-based; settings: 1 mM metformin, 24 hours
# Description: (§1) Particularly, T cells were separated from the spleen cells of the lupus animal model. […] To analyze signal molecules in the cultured cells, protein was extracted from each condition of the cells. Western blotting was performed with the extracted protein. The protein separated by size was conjugated with each antibody against ATG5, p62, and 3-actin. The activity of each molecule was evaluated. Some of the cultured cells were conjugated with DAPI, IL-17, and Foxp3 fluorescent antibodies, whose expressions were examined under fluorescent microscope after confocal staining.
# TFH cell = TFH cell expression in spleen tissue, confocal staining, lupus animal model; format: in vivo, mouse; settings: intraperitoneal injection 3 times a week; 5 weeks after the administration
# Description: Particularly, CD4-PerCP, B220-APC, GL-7-FITC, and IOCS-PE fluorescence staining was performed. Then, TFH cells expressing GL-7+ICOS+ in CD4 T cells were examined under fluorescent microscope.
# lupus mouse model = assay: Spleen and liver observation (size, GC follicles, inflammatory cell infiltration) in lupus mouse model; format: in vivo
# Description: The size of those spleen and liver was measured by the naked eye, and the size and the number of GC follicle (Germinal Center follicle) were also observed.
# The infiltration of inflammatory cells around the blood vessels of liver tissue was also observed.
# undifferentiated B cell = assay: Differentiation of undifferentiated B cell into regulatory B cell (Breg); format: cell-based; settings: undifferentiated B cell treated with metformin
# Text: As a result, the numbers of both IL-10+ B cell and Foxp3+ B cell were all increased.
# pathogenic B cells = assay: FACS and staining of spleen cells for pathogenic B cells, GC and THF in lupus mouse model; format: in vivo
# Text: Then, spleen cells were separated therefrom and B cell was observed. Particularly, the representative pathogenic B cells, B220−CD138+ long lived plasma B cell and GL7+B220+ germinal center B cell, were observed. For the observation, the spleen cells separated from each group were stained with CD138 and B220 and the […] were stained with GL7 and B220, followed by FACS to examine the expression of each cell.
# lupus animal model = assay: Serum lupus-specific dsDNA and IgG by ELISA in the lupus animal model; format: in vivo, mouse; settings: oral 100 mg/kg every day
# Description: At this time, the lupus animal model not treated with metformin was used as the control. […] The analysis of the treatment effect was performed as follows. […] Serum was separated from the blood extracted above. The levels of lupus-specific dsDNA (Sigma, cat no. D8515) and IgG (Sigma) in the separated serum were measured by ELISA. Particularly, 96-well plate was coated with dsDNA or anti-mouse IgG, to which the serum separated from the mouse blood was loaded, followed by reaction. Then, […] was added thereto, followed by reaction. Color development was induced by TMB system and the […] was measured.
# mTOR/STAT3 = mTOR/STAT3 signalling in T cells from lupus animal model spleen, Western blotting and confocal staining; format: cell-based
# Description: as §1, with “p-AMPK, AMPK, p-mTOR, mTOR, p-STAT3 705, p-STAST3 727, STAT3, p-STAT5, STAT5,” for “ATG5, p62,”, “β-actin.” for “3-actin.”, “p-AMPK, AMPK, p-mTOR, p-STAT3 705, p-STAT3 727,” for “DAPI, IL-17,”, “p-p53” for “Foxp3”, “staining” for “staining.”
# In addition, nucleus and cytoplasm were separated in order to examine the expression of NrF2 in the nucleus and cytoplasm. Electrophoresis was performed and then Nrf2, tubulin, and β-actin were analyzed by Western blotting.
# pathogenic B cell = assay: IgG production by LPS-stimulated B cell; format: cell-based, mouse; settings: metformin 1 μM, 2 μM, and 5 μM; LPS 1 μg/ml
# Description: Then, the level of IgG produced by B cell of the mouse was measured by the same manner as described in Example 1.
# Th17 cell [2] = assay: Th17 differentiation of CD4+ T cells from lupus mouse spleen: FACS, real-time PCR, IL-17 ELISA; format: cell-based; settings: 3 days
# Description: Particularly, T cells were separated from the spleen of the lupus mouse model by using CD4+ microbeads. […] Upon completion of the culture, some of the cultured cells were stained with CD4-PerCP and ILo-17 PE, followed by FACS. RNA was separate from the remaining cells, from which Th17 cell related gene was amplified by real-time PCR. The expression of IL-17 in the culture solution was analyzed by ELISA (antigen-antibody examination).
# [3] = tested on: regulatory T cell and Th17 cell; assay: Regulatory T cell and Th17 cell activity in lupus animal model; format: in vivo; settings: vs control group
# [4] = oral 100 mg/kg every day for 3 weeks, spleen cells, FACS, vs control
# [5] = staining of spleen cells, vs lupus mouse model not treated
# [6] = vs lupus group not treated with metformin
# [7] = 1 mM metformin with IL-6 or IL-2 (10 ng/ml), 24 hours
# [8] = real-time PCR, Th17 differentiation
compound,measurement,setting,value
CN(C)C(=N)NC(=N)N [metformin],germinal center B cell,B cell,suppressed by metformin dose-dependently
same,pre-long lived plasma cell B220+CD138 low cell,B cell,suppressed by metformin dose-dependently
same,pro/preB cell in the stage of early B cell differentiation,B cell,suppressed by metformin dose-dependently
same,suppressed IL-17 expression when the autophagy inhibitor was co-treated,"Th17 cell [1]; 1 mM metformin plus 10 μM bafilomycin or methyladenine, 72 hours, ELISA",increased
same,expression of IL-17,"Th17 cell [1]; 1 mM metformin, Th17 differentiation, 72 hours, ELISA",suppressed
same,intracellular activation of autophagy,Th17 cell [1]; electron microscope,directly confirmed
same,ATG5 (autophagy activating molecule),autophagy; Western blotting,activate
same,p62 (autophagy activating molecule),autophagy; Western blotting,activate
same,expression of Foxp3,autophagy; confocal staining,increase
same,expression of IL-17,autophagy; confocal staining,suppress
same,expression of TFH cell expressing ICOS in the spleen tissue,TFH cell,suppressed
same,size and number of GC follicle,"lupus mouse model; spleen, vs group not treated with metformin",significantly decreased
same,size of spleen,lupus mouse model; vs group not treated with metformin,significantly reduced
same,infiltration of inflammatory cells around the blood vessels of liver tissue,lupus mouse model; vs lupus mouse group not treated with metformin,hardly observe
same,number of Foxp3+ B cell,undifferentiated B cell,increased
same,number of IL-10+ B cell,undifferentiated B cell,increased
same,B220-CD138+ long lived plasma B cell,pathogenic B cells; [4],significantly reduced
same,GL7+B220+ germinal center B cell,pathogenic B cells; [4],significantly reduced
same,number of follicular B helper T cells (THF),pathogenic B cells; [5],also reduced
same,size of GC,pathogenic B cells; [5],significantly reduced
same,level of IgG in serum,lupus animal model; [6],significantly reduced
same,level of lupus-specific dsDNA in serum,lupus animal model; [6],significantly reduced
same,level of lupus-specific dsDNA in serum compared with normal mouse group,lupus animal model; vs normal (wild type) mouse group,rather lower than that of the normal mouse group
same,AMPK activity,mTOR/STAT3; [7],activated
same,mTOR/STAT3 activity,mTOR/STAT3; [7],suppression
same,expression of NrF2,"mTOR/STAT3; 1 mM metformin, nucleus and cytoplasm, Western blotting",increased
same,IgG production in B cell,pathogenic B cell,reduced by metformin dose-dependently
same,expression of IL-17,"Th17 cell [2]; Th17 differentiation condition, metformin 0.1, 1, and 5 mM, FACS and ELISA",regulated by metformin
same,expression of Foxp3 gene,Th17 cell [2]; [8],increased
same,expression of Th-17 related gene Ahr,Th17 cell [2]; [8],suppression
same,expression of Th-17 related gene IL-17,Th17 cell [2]; [8],suppression
same,expression of Th-17 related gene IL-21,Th17 cell [2]; [8],suppression
same,expression of Th-17 related gene RUNX1,Th17 cell [2]; [8],suppression
same,expression of Th-17 related gene TNF-α,Th17 cell [2]; [8],suppression
same,activity of Th17,[3],decreased
same,activity of regulatory T cell,[3],increased
